Measured values published in US9096608B2, “Pharmaceutically active pyrazolo-triazine derivatives” (LEAD DISCOVERY CENTER GMBH, priority 2012, dated 2015).
Where two headings read alike, the source gives them in different places.

Key:
Format in all cases: biochemical
CDK2/CycA = molecular target: T1, CDK2/CycA (Homo sapiens, UniProt P24941); test: CDK2 Enzymatic Activity Assay (Lance Kinase Activity Assay, FRET); conditions: for CDK2 IC50 range class: Table 5B, symbols per IC50 ranges of b615
T1 construct: purchased Proqinase
Protocol: (§1) This protocol describes how the Lance Kinase Activity Assay was performed to determine IC50 values of compounds of general formula (I) against CDK/Cyclin complexes. The principle behind this enzymatic assay is based upon the phosphorylation of the Ulight-Peptide Substrat. It is detected by using a specific EU-labeled anti-phospho peptide antibody.
(§2) Binding of an inhibitor to the kinase prevents phosphorylation of the ULlight-MBP Substrat, resulting in a loss of FRET.
CDK2 Enzymatic Activity Assay
(§3) The compounds of general formula (I) exemplary summarized in Table 1 were diluted from a 10 mM DMSO stock solution 1:10 in a total volume of 15 μl DMSO. This compound predilution was then serial diluted 1:3 over 8 steps in DMSO and briefly spun down. Each compound solution was now diluted 1:20 in Enzymatic Buffer (HEPES: 50 mM, pH: 7.5; MgCl2: 10 mM; EGTA: 1 mM; DTT: 2 mM; Tween-20: 0.01%), mixed thoroughly and spun down.
(§4) For positive controls, 2 μl of DMSO working solution were mixed with 6 μl CDK2/CycA/substrate working solution and 2 μl ATP working solution. Positive and negative controls were calculated from at least 8 different wells. The 384 well plates were mixed in a Teleshaker plate mixer (Beckman Coulter, Brea, Calif., USA) at 2000 rpm for 40 sec, and incubated for 1 h at room temperature before addition of 10 μl LANCE Detection Buffer (EDTA: 20 nM; Eu-Anti-P-MBP: 4 nM) per well. Plates were mixed in a Teleshaker plate mixer (Beckman Coulter, Brea, Calif., USA) at 2000 rpm for sec, followed by incubation with Detection Buffer for 1 h, and reading. […] IC50 values were determined from the sigmoidal dose response curves with the software Quattro Workflow (Quattro GmbH, Munich, Germany).

CDK7/CycH/Mat1 = molecular target: T2, CDK7/CycH/Mat1 (Homo sapiens, UniProt P50613); test: CDK7 Enzymatic Activity Assay (Lance Kinase Activity Assay, FRET)
T2 construct: purchased Carna
T2 sequence (P50613 whole entry): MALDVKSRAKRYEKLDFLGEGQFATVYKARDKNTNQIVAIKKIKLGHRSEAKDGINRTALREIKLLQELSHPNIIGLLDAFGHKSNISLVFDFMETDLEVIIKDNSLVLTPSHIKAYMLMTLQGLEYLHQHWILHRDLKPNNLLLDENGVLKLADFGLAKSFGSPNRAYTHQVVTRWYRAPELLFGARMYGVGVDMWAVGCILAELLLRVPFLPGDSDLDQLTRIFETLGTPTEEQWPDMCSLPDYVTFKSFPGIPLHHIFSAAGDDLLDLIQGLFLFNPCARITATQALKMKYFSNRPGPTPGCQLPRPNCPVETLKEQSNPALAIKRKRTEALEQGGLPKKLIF
T2 sequence (P51946 whole entry partner): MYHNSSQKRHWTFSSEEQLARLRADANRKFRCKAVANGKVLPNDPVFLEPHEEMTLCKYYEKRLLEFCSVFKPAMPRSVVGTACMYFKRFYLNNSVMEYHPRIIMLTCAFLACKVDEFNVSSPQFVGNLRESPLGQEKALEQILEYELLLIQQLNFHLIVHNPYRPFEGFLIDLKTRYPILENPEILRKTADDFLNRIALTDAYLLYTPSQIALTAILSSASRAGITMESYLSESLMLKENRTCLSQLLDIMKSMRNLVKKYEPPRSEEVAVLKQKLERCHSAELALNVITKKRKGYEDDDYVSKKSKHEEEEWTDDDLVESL
T2 sequence (P51948 whole entry partner): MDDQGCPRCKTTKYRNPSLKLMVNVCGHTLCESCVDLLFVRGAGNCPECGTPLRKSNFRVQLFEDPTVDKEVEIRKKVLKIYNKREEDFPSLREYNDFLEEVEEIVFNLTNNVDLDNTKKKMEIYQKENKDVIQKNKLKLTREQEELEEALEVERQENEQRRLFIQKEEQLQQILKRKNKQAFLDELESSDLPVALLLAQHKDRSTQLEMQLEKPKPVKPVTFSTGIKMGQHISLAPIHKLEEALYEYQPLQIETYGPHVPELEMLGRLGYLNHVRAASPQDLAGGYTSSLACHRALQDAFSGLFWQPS
Protocol: as §1, §2
CDK7 Enzymatic Activity Assay
as §3
as §4, with “6 μl CDK7/CycH/Mat1/substrate working solution” for “6 μl CDK2/CycA/substrate working solution”, “Detection Buffer (1×; EDTA: […];” for “Detection Buffer (EDTA: 20 nM;”, “rpm for 40 sec, followed” for “rpm for sec, followed”

CDK9/Cyclin T1 = molecular target: T3, CDK9/Cyclin T1 (Homo sapiens, UniProt P50750); test: CDK9 Enzymatic Activity Assay (Lance Kinase Activity Assay, FRET); conditions: for CDK9: Selectivity of CDK7 inhibition over CDK9 inhibition [fold]: Table 5B, symbols per IC50 ranges of b615
T3 construct: purchased Invitrogen
T3 sequence (P50750 whole entry): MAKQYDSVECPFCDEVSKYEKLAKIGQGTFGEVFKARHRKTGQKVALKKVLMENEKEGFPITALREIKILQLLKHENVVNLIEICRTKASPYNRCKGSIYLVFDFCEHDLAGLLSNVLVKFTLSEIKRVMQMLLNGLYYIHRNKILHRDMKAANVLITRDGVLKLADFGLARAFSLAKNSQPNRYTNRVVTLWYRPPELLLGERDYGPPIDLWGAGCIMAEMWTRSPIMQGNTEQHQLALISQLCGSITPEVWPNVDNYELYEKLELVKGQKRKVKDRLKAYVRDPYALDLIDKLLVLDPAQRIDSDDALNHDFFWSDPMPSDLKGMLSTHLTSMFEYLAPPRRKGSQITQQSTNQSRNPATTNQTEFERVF
T3 sequence (O60563 whole entry partner): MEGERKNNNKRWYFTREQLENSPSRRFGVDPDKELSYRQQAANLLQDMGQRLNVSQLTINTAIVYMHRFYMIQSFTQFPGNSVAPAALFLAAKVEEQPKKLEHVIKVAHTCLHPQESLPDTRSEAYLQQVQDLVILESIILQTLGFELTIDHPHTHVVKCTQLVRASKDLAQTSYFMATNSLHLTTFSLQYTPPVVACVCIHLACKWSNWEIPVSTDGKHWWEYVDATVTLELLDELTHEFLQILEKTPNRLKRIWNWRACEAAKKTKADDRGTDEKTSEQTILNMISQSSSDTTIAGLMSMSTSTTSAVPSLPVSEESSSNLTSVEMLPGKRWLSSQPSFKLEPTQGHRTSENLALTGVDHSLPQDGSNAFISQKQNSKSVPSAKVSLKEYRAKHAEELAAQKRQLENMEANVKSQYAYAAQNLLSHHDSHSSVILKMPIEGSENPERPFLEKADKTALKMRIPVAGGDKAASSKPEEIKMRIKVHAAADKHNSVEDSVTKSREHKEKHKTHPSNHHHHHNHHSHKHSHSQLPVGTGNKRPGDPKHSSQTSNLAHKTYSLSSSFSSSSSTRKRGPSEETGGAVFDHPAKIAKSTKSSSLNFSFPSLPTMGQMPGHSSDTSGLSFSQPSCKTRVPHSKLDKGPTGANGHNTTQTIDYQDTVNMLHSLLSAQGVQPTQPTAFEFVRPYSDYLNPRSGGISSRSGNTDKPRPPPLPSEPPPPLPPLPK
Protocol: as §1, §2
CDK9 Enzymatic Activity Assay
as §3
as §4, with “CDK9/cyclin T1/substrate” for “CDK2/CycA/substrate”, “(1×; EDTA:” for “(EDTA:”

[1] = Table 5A, 25 μM ATP final, read-out: CDK7: IC50 [mM] for CDK7 inhibition (the above defined ranges apply)

CDK2 IC50 range class (CDK2/CycA)	Selectivity CDK7 over CDK2 [fold] (CDK2/CycA; Table 6, CDK2 activity as multiple of CDK7 activity)	multiplicity of the CDK2 and CDK9 activity in terms of the CDK7 activity (CDK7/CycH/Mat1; CDK2 and CDK9 IC50 relative to CDK7 IC50, highest of the two ('up to'))	IC50 (CDK7/CycH/Mat1; [1])	IC50 (CDK7/CycH/Mat1; Table 6, read-out: IC50 [nM] CDK7)	selectivity for CDK7 against CDK2 and CDK9 (in words) (CDK7/CycH/Mat1; comparison of the enzymatic activity assays for CDK2, CDK7 and CDK9)	CDK9: Selectivity of CDK7 inhibition over CDK9 inhibition [fold] (CDK9/Cyclin T1)	Selectivity CDK7 over CDK9 [fold] (CDK9/Cyclin T1; Table 6, CDK9 activity as multiple of CDK7 activity)	SMILES
+++ (IC50>2500 nM)	733 fold	> 733 fold	< 10 nM	< 10 nM	selectively inhibits only CDK7	+++ (IC50>2500 nM)	598 fold	CC(C)c1cnn2c(N[C@@H](C)c3ccccc3)nc(O[C@@H]3CCCNC3)nc12 [(VII-j), 8-isopropyl-N-((S)-1-phenylethyl)-2-((R)-piperidin-3-yloxy)pyrazolo[1,5-a][1,3,5]triazin-4-amine]
+++ (IC50>2500 nM)	–	–	10 to 30 nM	–	–	+++ (IC50>2500 nM)	–	Cc1ccccc1[C@H](C)Nc1nc(O[C@@H]2CCCNC2)nc2c(C(C)C)cnn12 [(VII-af), 8-isopropyl-2-((R)-piperidin-3-yloxy)-N-((S)-1-(o-tolyl)ethyl)pyrazolo[1,5-a][1,3,5]triazin-4-amine]
+++ (IC50>2500 nM)	–	–	> 100 nM	–	–	+++ (IC50>2500 nM)	–	COc1cccc([C@H](C)Nc2nc(CN(C)CC3CNC3)nc3c(C(C)C)cnn23)c1 [(XXIX-3), (S)-2-(((azetidin-3-ylmethyl)(methyl)amino)methyl)-8-isopropyl-N-(1-(3-methoxyphenyl)ethyl)pyrazolo[1,5-a][1,3,5]triazin-4-amine]
+++ (IC50>2500 nM)	–	–	> 100 nM	–	–	+++ (IC50>2500 nM)	–	COc1cc(OC)cc(C(C)Nc2nc(O[C@@H]3CCCNC3)nc3c(C(C)C)cnn23)c1 (stereo partly drawn) [(VII-bg), N-(1-(3,5-dimethoxy-phenyl)ethyl)-8-isopropyl-2-((R)-piperidin-3-yloxy)pyrazolo[1,5-a][1,3,5]triazin-4-amine]
+++ (IC50>2500 nM)	–	–	< 10 nM	–	–	+++ (IC50>2500 nM)	–	COc1cccc([C@H](C)Nc2nc(OC3CNC3)nc3c(C(C)C)cnn23)c1 [(VII-bv), (S)-2-(azetidin-S-yloxy)-8-isopropyl-N-(1-(3-methoxyphenyl)ethyl)pyrazolo[1,5-a][1,3,5]triazin-4-amine]
+++ (IC50>2500 nM)	–	–	30 to 100 nM	–	–	+++ (IC50>2500 nM)	–	COc1cccc([C@H](C)Nc2nc(NCCCN)nc3c(C(C)C)cnn23)c1 [(VIII-t), (S)-N2-(3-aminopropyl)-8-isopropyl-N4-(1-(3-methoxyphenyl)ethyl)pyrazolo[1,5-a][1,3,5]triazine-2,4-diamine]
+++ (IC50>2500 nM)	–	–	10 to 30 nM	–	–	+++ (IC50>2500 nM)	–	CC(C)c1cnn2c(N[C@@H](C)c3ccccc3I)nc(O[C@@H]3CCCNC3)nc12 [(VII-au), N-((S)-1-(2-iodophenyl)ethyl)-8-isopropyl-2-((R)-piperidin-3-yloxy)pyrazolo[1,5-a][1,3,5]triazin-4-amine]
+++ (IC50>2500 nM)	–	–	< 10 nM	–	–	+++ (IC50>2500 nM)	–	COc1cccc([C@H](C)Nc2nc(N3CCCC4(CCCCN4)C3)nc3c(C(C)C)cnn23)c1 (stereo partly drawn) [(VIII-ah), 8-isopropyl-N-((S)-1-(3-methoxyphenyl)ethyl)-2-(1,8-diazaspiro[5.5]undecan-8-yl)pyrazolo[1,5-a][1,3,5]triazin-4-amine]
+++ (IC50>2500 nM)	–	–	> 100 nM	–	–	+++ (IC50>2500 nM)	–	COc1cccc([C@H](C)Nc2nc(CNCCN3CCOCC3)nc3c(C(C)C)cnn23)c1 [(XXIX-7), (S)-8-isopropyl-N-(1-(3-methoxyphenyl)ethyl)-2-(((2-morpholinoethyl)amino)methyl)pyrazolo[1,5-a][1,3,5]triazin-4-amine]
